The subject of data set [1] is Staphylococcus aureus (ATCC 25923). Description: Microplate Alamar Blue Assay, Staphylococcus aureus. To be noted: 200 μg/mL, NI = No inhibition; for inhibition at 200 µg/mL: Staphylococcus aureus, ATCC25923, read-out: Percentage (%) Inhibition, Staphylococcus aureus. It is filed as cell-based. On the procedure:
(§1) The anti-bacterial activity of synthesized compound were evaluated by the Microplate Alamar Blue Assay. Staphylococcus aureus (ATCC 25923), Pseudomonas aeruginosa(POA 286), Salmonella typhi (ATCC 14028), Bacillus subtilis ATCC 6633) and Escherichia coli (ATCC 12022) were used in this study as a standard bacterial strains and they were obtained from microbial bank of PCMD, International Center for Chemical and Biological Sciences, University of Karachi, Karachi-75270, Pakistan. The bacterial colonies grown in Trypton Soya Agar (TSA) (Oxoid Limited, UK) were inoculated in Mueller Hinton Broth (MHB) (Oxoid Limited, UK) and incubated overnight at 37 °C. Fully grown bacterial cultures were then diluted to adjust with 0.5 McFarland Turbidity Index (equivalent to 1.5 × 10^8 CFU/mL). Stock solutions (4 mg/mL) of different test compounds were prepared in DMSO and 10μL each of these stock solutions were placed in well of flat bottom, polystyrene, sterile 96-wells plate except the positive control wells (media + bacteria). This gives 200μg/mL concentrations of compounds in final 200 μL solution. Each compound was run in triplicates. Finally, bacterial suspension (5 x 10^6 CFU/mL) was added in each well. Plates were sealed by parafilm and incubated at 37 °C for 18–22 hrs. Next day, 20 μL of 0.02% resazurin sodium salt dye (Chem-Impex-Int’LInc) was added in each well and incubated in shaking incubator at 80 rpm, 37 °C for 2–3 hrs. The color change from blue to reddish pink indicates the growth of bacteria. For quantitative analysis, plates were read at 570 nm and 600 nm in Multiskan GOmicroplate spectrophotometer, (Thermo Scientific, USA). The % inhibition of bacterial growth was calculated using below mentioned formula.
(§2) For the calculation of the % difference in reduction between treated and control cells in cytotoxicity/proliferation assays: =(εOX)λ2Aλ1-(εOX)λ1Aλ2oftestagent/(εOX)λ2A°λ1-(εOX)λ1A°λ2ofpositivegrowthcontrol×100
In general terms: Alamar Blue is a resazurin reagent that responds to reducing activity.

Another data set is described as follows: MTT cytotoxicity assay. It is filed as cell-based, mouse. The note with it: mouse; MTT, 48 hours; read-out: Cytotoxicity NIH-3T3 cell line (IC50). On the procedure: (§3) The cytotoxicity was recorded as concentration causing 50% growth inhibition (IC50).
For orientation: Formazan colour is commonly taken as a measure of viable cells.

Data set [2] deals with Salmonella typhi (ATCC 14028). Description: Microplate Alamar Blue Assay, Salmonella typhi. Type of data set: cell-based. To be noted: 200 μg/mL, NI = No inhibition; for inhibition at 200 µg/mL: Salmonella enterica, read-out: Percentage (%) Inhibition, Slamonella typhi. On the procedure:
as §1, §2

In data set [3] the test system is Escherichia coli (ATCC 12022). As to the kind of experiment: Microplate Alamar Blue Assay, Escherichia coli. Type of data set: cell-based. To be noted: ATCC12022, 200 μg/mL, NI = No inhibition, read-out: Percentage (%) Inhibition, Escherichia coli. On the procedure:
as §1, §2

Data set [4] has as its system Bacillus subtilis (ATCC 6633). Description: Microplate Alamar Blue Assay, Bacillus subtilis. It is filed as cell-based. The note with it: ATCC6633, 200 μg/mL, NI = No inhibition, read-out: Percentage (%) Inhibition, Bacillus subtilis. On the procedure:
as §1, §2

The subject of data set [5] is Pseudomonas aeruginosa (POA 286). As to the kind of experiment: Microplate Alamar Blue Assay, Pseudomonas aeruginosa. It is filed as cell-based. To be noted: 200 μg/mL, NI = No inhibition; for inhibition at 200 µg/mL: Pseudomonas aeruginosa, read-out: Percentage (%) Inhibition, Pseudomonas aerugenosa. On the procedure: as §1, §2
Data set [6] relates to mouse fibroblast NIH-3T3 cell line. As to the kind of experiment: MTT cytotoxicity assay. Type of data set: cell-based. To be noted: MTT, 48 hours. On the procedure: as §3

pIC50: −log10 of the molar value.

Broadly, the melting point is the temperature of the solid-liquid transition. A word on the inhibition: it is the change of the read-out against control, counted positive when it falls. The term pIC50 denotes the IC50 on a negative log10 scale, so that one unit is a factor of ten. `Cc1cc(C)cc(C(=O)Nc2ccc(S(=O)(=O)Nc3nc(C)cc(C)n3)cc2)c1` [Compound 38, N-(4-(N-(4,6-dimethylpyrimidin-2-yl)sulfamoyl)phenyl)-3,5-dimethylbenzamide] returned a melting point of 216 to 218 °C. Besides, in data set [1], the inhibition at 200 µg/mL is less than 0%. Moreover, the pIC50 in “MTT cytotoxicity assay” is less than 4.52. The inhibition at 200 µg/mL in data set [2] is less than 0%. Moreover, in data set [3], the inhibition at 200 µg/mL was less than 0%. Moreover, in data set [4], the inhibition at 200 µg/mL is less than 0%. For the same compound, the inhibition at 200 µg/mL in data set [5] stood at 19%.
Regarding `Cc1cc(C)nc(NS(=O)(=O)c2ccc(NC(=O)C34CCC(C)(C(=O)O3)C4(C)C)cc2)n1` (stereo not shown) [Compound 15, N-(4-(N-(4,6-dimethylpyrimidin-2-yl)sulfamoyl)phenyl)-4,7,7-trimethyl-3-oxo-2-oxabicyclo[2.2.1]heptane-1-carboxamide], the melting point fell in the range of 254 to 256 °C. The inhibition at 200 µg/mL in data set [1] amounted to 14.1%. Further, the negative-log IC50 (pIC50) in the data set “MTT cytotoxicity assay” is less than 4.52. Also, the inhibition at 200 µg/mL in data set [2] came to 29.3%. For the same compound, the inhibition at 200 µg/mL in data set [3] was less than 0%. The inhibition at 200 µg/mL in data set [4] was determined as 38.4%. In addition, the inhibition at 200 µg/mL in data set [5] came to 29.4%.
As to `Cc1cc(C)nc(NS(=O)(=O)c2ccc(NC(=O)c3ccc(Cl)cc3Cl)cc2)n1` [Compound 24, 2,4-dichloro-N-(4-(N-(4,6-dimethylpyrimidin-2-yl)sulfamoyl)phenyl)benzamide], the melting point is 233 to 236 °C. Also, in data set [1], the inhibition at 200 µg/mL was found to be 48.4%. In “MTT cytotoxicity assay”, the pIC50 is less than 4.52. In addition, the inhibition at 200 µg/mL in data set [2] came out at 18.4%. Also, the inhibition at 200 µg/mL in data set [3] turned out to be 7.45%. For the same compound, the inhibition at 200 µg/mL in data set [4] was less than 0%. The inhibition at 200 µg/mL in data set [5] is less than 0%.
For the compound `Cc1cc(C)nc(NS(=O)(=O)c2ccc(NC(=O)c3cccc(C(F)(F)F)c3)cc2)n1` [Compound 20], the “Percentage (%) Inhibition, Staphylococcus aureus” value in data set [1] is 30.78%. Further, the pIC50 in data set [6] is less than 4.52. Moreover, in data set [2], the “Percentage (%) Inhibition, Slamonella typhi” value came out at 9.30%. The “Percentage (%) Inhibition, Pseudomonas aerugenosa” value in data set [5] is reported as 1.66%.

The values above are taken from paper PMC6300282, “Sulphamethazine derivatives as immunomodulating agents: New therapeutic strategies for inflammatory diseases” (PLoS ONE, 2018).
